{
  "source": "paper PMC9408991",
  "about": "“Antitumor Effects of a New Retinoate of the Fungal Cytotoxin Illudin M in Brain Tumor Models” (International Journal of Molecular Sciences, 2022)",
  "key": {"[1]": {"system": "retinoid-responsive elements (RARE)", "assay": "RA reporter assay, F9 RARE-lacZ reporter cells", "format": "cell-based", "details": "10 nM; control 45", "description": "More typical of retinoic acid is its contribution to cell differentiation during vertebrate embryonic development by interacting with nuclear receptors, which bind to specific retinoid-responsive elements (RARE) within the promoters of subordinate genes, activating their transcription. To verify that retinoate 2 also binds to RARE, we used a reporter assay with F9 teratocarcinoma cells featuring a RARE located within the cis-acting regulatory sequences of the human retinoic acid receptor alpha gene and immediately upstream of the E. coli lacZ genes, which thus acquire retinoid responsivity. LacZ expression in cells treated with various concentrations of 2 was then quantitated by densitometric analysis of β-galactosidase activity visualized by X-Gal staining.\nThe F9 embryonal carcinoma cell line, stably transfected with the 1.8 kb promoter sequence of RARb2 coupled to the lacZ gene, was used to measure active retinoids. The assay is appropriate for detection of all-trans RA but is able to detect other retinoid isomers as well. The F9 reporter cells were maintained in 10% FCS containing DMEM in the presence of 400 ug/mL G418. A day before the assay, F9 cell were seeded onto 24-well plates (100,000 cell/well). The cells were than treated with various concentrations of 2. […]"}, "NE-4C neural stem cells": {"system": "NE-4C neural stem cells", "assay": "Neuronal differentiation of NE-4C neural stem cells (β-tubulin III staining)", "format": "cell-based, mouse", "details": "10 nM, β-tubulin III staining", "procedure": "NE-4C cells and their differentiated progeny neurons can be immunohistochemically distinguished by the presence of β-tubulin III only in the latter (Figure 3).\nAstroglia cells grown on poly-L-lysine-coated glass cover slips were fixed with 4% paraformaldehyde in PBS for 20 min at room temperature and then permeabilized with Triton X-100 (0.1% v/v in PBS; 5 min). Nonspecific antibodies were blocked by incubation with 3% FBS in PBS (room temperature, 1 h). α-GFAP antibody (rabbit, DAKO) was used in a dilution of 1:2000 and was visualized by anti-rabbit IgG Alexa 594 (1:1000). DAPI (4′,6-diamidino-2-phenylindole) was used for nuclei staining. Fluorescence images were captured manually on a Zeiss Axiovert 200 M microscope fitted with 20- to 60-fold zoom and a Zeiss AxioCam MRm digital camera. Further applied antibodies were tubulin III (Sigma T5076), used at a dilution of 1:1000, and Annexin V. Cy3.18 (Sigma A4963)."}},
  "data": [
    {"smiles": "CC1=C(/C=C/C(C)=C/C=C/C(C)=C/C(=O)O)C(C)(C)CCC1", "note": "[all-trans retinoic acid, reference compound]", "values": [
      {"measurement": "gray value (densitometric analysis of β-galactosidase activity)", "setting": "[1]", "result": 175},
      {"measurement": "differentiation of NE-4C stem cells to neurons", "setting": "NE-4C neural stem cells", "result": "differentiate to neurons"}
    ]}
  ]
}
